We go through 1 molecule from patent US6726919B2, “Injectable dispersion of propofol” (RTP Pharma, Inc., priority 2000, dated 2004).

The test system of this data set is human whole blood. Type of data set: cell-based. The note with it: both, 1 h. On the procedure: In-vitro evaluation of the hemolytic influence of the preparations of this invention on human whole blood is determined as a further guide to selecting formulations with a low tendency to produce irritation around the site of injection. The hemolytic potential of a formulation on blood is evaluated by an assay of erythrocyte cytoplasmic marker enzyme, lactate dehydrogenase (LDH) which escapes from the leaky or ruptured erythrocytes into the plasma compartment of the blood. For the assay, blood is obtained from male or female Caucasian human volunteers of 18 to 65 years of age and stabilized with sodium heparin. A test formulation is mixed with an equal volume of human whole blood and incubated at 37° C. for about 1 hour. The mixture is then held at ambient temperature for 30 minutes followed by centrifugation at 1500 rpm for 10 min. The level of LDH in the supernatant is determined according to protocols known in the art. An upper limit titre is determined by measuring the LDH levels resulting from hemolysis by amiodarone hydrochloride, a compound known to result in vein irritation upon venous injection in clinical settings (PDR 1999, p. 3289). Amiodarone hydrochloride IV solution, when tested at 50 mg/mL and after dilution with 5% aqueous dextrose to 1.8 mg/mL can result in LDH values of about 8000 IU/L and about 700 IU/L, respectively.

Structures can show the parent of a compound that is named as a salt. Where two headings read alike, the source gives them in different places.

Consider `CCCCc1oc2ccccc2c1C(=O)c1cc(I)c(OCCN(CC)CC)c(I)c1` [Amiodarone hydrochloride, amiodarone hydrochloride], for which the LDH values entry by setting is: (1.8 mg/mL) “about 700 IU/L”; (50 mg/mL) “about 8000 IU/L”.
